pKi: −log10 of the molar value.
How the values were obtained:
[1] = Mutant factor of the compound against mu-[K303E] with Opioid receptor kappa 1 for binding affinity
[2] = Mutant factor against mu-[K303E] with Opioid receptor kappa 1 for binding affinity

Row | SMILES | pKi [1] | pKi [2]
1 | NC(N)=Nc1ccc2[nH]c3c(c2c1)C[C@@]1(O)[C@H]2Cc4ccc(O)c5c4[C@@]1(CCN2CC1CC1)[C@H]3O5 | 10.22 | 
2 | Oc1ccc2c3c1O[C@H]1c4[nH]c5c(c4C[C@@]4(O)[C@@H](C2)N(CC2CC2)CC[C@]314)C[C@@]1(O)[C@H]2Cc3ccc(O)c4c3[C@@]1(CCN2CC1CC1)[C@H]5O4 [C18130] |  | 9.11
3 | N#CN=C(N)Nc1ccc2[nH]c3c(c2c1)C[C@@]1(O)C2Cc4ccc(O)c5c4[C@@]1(CCN2CC1CC1)[C@H]3O5 [5'-[N-(N'-Cyano)guanidinyl]-17-cyclopropylmethyl-6,7-didehydro-4,5alpha-epoxy-3,14-dihydroxyindolo[2',3':6,7]morphinan] |  | 9.54

— BindingDB's records for doi:10.1021/jm9805182 (University of Minnesota, 1999)
